{"source": "patent US20250042968A1", "about": "“EPHRIN LIGAND MIMETIC PEPTIDES FOR THE TREATMENT OF NEURODEGENERATIVE DISEASES” (University of Miami, priority 2022, published 2025)", "key": {"[1]": {"test_system": "mouse RGC growth cones", "assay": "RGC growth cone collapse analysis", "assay_type": "cell-based", "details": "500 nM, 4 days, mouse RGC cultures", "protocol": "One of the first signs of neuronal dysfunction is axonal growth cone collapse, and it is one of the mechanisms through which Eph-receptors exert their repulsive stimuli for axonal guidance. […] At the 48 h time point, cells were stimulated by the addition of 2 μg of pre-clustered recombinant mouse EfnA5-His (R&D Systems) for 1 hour. Following this stimulation, cells were fixed in 4% paraformaldehyde for 5 minutes, permeabilized with 0.05% Triton X-100, and blocked with 5% FBS for 1 h. Cells were then incubated in primary antibody against TUBB3 overnight at 4° C., washed, and incubated in AlexaFluor 488-conjugated secondary for 2 h at room temperature. After washing, cell cytoskeleton was counterstained with AlexaFluor 594-conjugated phalloidin for 30 min at 37° C. (ThermoFisher) and mounted with SlowFade Gold Anti-fade media with DAPI. Cells were then imaged using an EVOS FL Auto fluorescent microscope. Images were analyzed in ImageJ by a blinded investigator and a growth cone collapse was calculated manually."}, "[2]": {"test_system": "Ephexin-1", "assay": "Western blot of phosphorylated Ephexin-1 in mRGCs", "assay_type": "cell-based, mouse", "details": "500 nM", "protocol": "(§1) On day 4, cells were treated with pre-clustered recombinant mouse EfnA5-His ligand [(+) Control, using anti-His_Tag antibody for 30 minutes] for 2 hours. Cells were then lysed in RIPA buffer containing protease and phosphatase inhibitor cocktails and maintained on ice. Protein was quantified using a BCA assay, and 10 μg of total protein was run on a TGX stain-free Any kD gel (BioRad) and transferred using the trans-blot turbo system (BioRad). Following transfer and blocking in 5% nonfat milk for 1 h, blots were probed with antibodies against RhoA, phosphorylated Rac1, ARHGEF15, Ephexin-1, or beta-actin as an endogenous loading control overnight at 4° C. Blots were then washed 3×5 min in PBS-T and incubated in the appropriate HRP-conjugated secondary antibody for 2 h at room temperature. Blots were imaged using chemiluminescent ECL substrate (Pierce) on a BioRad ChemiDoc MP imaging system and software."}, "[3]": {"test_system": "phosphorylated Rac1", "assay": "Western blot of phosphorylated Rac1 in mRGCs", "assay_type": "cell-based, mouse", "details": "500 nM", "protocol": "as §1"}, "[4]": {"test_system": "isolated mouse RGCs", "assay": "Neurite sprouting and extension assay, short-term (48 h)", "assay_type": "cell-based", "protocol": "(§2) Mouse retinal ganglion cells (RGC): Mouse R GCs were isolated as follows. Briefly, retinas from postnatal day 8-10 (p8-10) mouse pups were dissected and digested using a papain solution (16.5 U/mL) for 30 minutes at 37° C. Following dissociation, macrophage and endothelial cells were removed from the cell suspension by panning with the anti-macrophage antiserum (Accurate Chemical, Westbury, NY). Finally, RGCs were immunopanned in plates containing the antibody against Thy1.2 and were then released by incubation with trypsin solution. RGCs were grown on poly-L-lysine coated plates in serum-free Neurobasal media (Invitrogen, Carlsbad, CA), supplemented with B-27 supplement, CNTF (10 ng/ml), and BDNF (10 ng/ml).\n(§3) mRGCs were used to analyze dendrite sprouting, axonal polarization and extension, and ephrin receptor phosphorylation following treatment with xEFN peptides. RGCs were isolated as described above and plated onto 24 well plates at a concentration of 4×10^4 cells/well for short-term (48 h) experiments, or into 96-well plates at a concentration of 1,000 cells/well for long-term (6 days) experiments in an Incucyte Zoom (Essen Biosciences) instrument for live cell imaging. […] For the short-tem experiment, cells were fixed in 4% paraformaldehyde for 5 minutes, permeabilized using 0.05% Triton X-100, blocked with 5% fetal bovine serum, and incubated with primary antibody against Tubulin Beta 3 Class III (TUBB3) overnight at 4° C. Cells were then washed 3×5 min with PBS and incubated with AlexaFluor488 secondary antibody for 2 h at room temperature. Cells were mounted using SlowFade Gold Antifade mounting media with DAPI (ThermoFisher) and imaged using an EVOS FL automated fluorescent microscope (ThermoFisher). Dendrite measurements and analysis was performed by a blinded investigator using ImageJ software and the Sholl analysis plugin. […] Neurite sprouting and extension were quantified using the automated Incucyte Zoom NeuroTrack Processing algorithm for real-time, label-free neurite segmentation and quantitation (FIG. 13)."}, "[5]": {"target": "T1, EphA2 (Mus musculus, UniProt Q03145)", "T1 construct": "endogenous in cells; host or cells: primary mouse retinal ganglion cells (p8-10 pups)", "T1 sequence (Q03145 26-977)": "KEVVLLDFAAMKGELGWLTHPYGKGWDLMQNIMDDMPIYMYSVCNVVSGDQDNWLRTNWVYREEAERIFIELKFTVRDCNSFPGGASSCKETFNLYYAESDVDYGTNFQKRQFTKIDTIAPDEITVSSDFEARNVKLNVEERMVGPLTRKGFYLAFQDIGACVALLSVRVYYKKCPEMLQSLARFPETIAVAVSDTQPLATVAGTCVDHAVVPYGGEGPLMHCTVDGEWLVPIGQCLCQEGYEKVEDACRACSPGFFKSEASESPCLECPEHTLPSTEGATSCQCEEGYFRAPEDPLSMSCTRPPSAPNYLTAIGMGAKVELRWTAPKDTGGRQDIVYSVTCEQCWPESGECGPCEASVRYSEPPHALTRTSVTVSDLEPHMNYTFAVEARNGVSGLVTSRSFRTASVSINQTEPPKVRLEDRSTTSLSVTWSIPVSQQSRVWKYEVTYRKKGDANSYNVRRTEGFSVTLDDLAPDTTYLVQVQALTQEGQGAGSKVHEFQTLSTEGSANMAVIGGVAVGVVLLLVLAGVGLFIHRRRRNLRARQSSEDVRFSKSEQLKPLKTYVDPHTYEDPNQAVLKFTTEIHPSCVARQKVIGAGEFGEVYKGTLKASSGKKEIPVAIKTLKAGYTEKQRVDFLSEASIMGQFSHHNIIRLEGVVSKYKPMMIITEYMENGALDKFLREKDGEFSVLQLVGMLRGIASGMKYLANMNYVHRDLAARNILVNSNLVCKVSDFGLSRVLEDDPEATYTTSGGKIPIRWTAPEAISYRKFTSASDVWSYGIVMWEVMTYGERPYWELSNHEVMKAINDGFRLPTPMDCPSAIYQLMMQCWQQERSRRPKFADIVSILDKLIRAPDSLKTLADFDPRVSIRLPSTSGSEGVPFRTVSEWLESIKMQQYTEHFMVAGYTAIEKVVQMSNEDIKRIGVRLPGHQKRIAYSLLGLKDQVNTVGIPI", "assay": "Western blot of EphA2 expression in isolated mouse RGCs", "assay_type": "cell-based", "details": "1 μM, 4 days", "excerpt": "In order to assess the effect of xEFN peptide supplementation on Eph-receptor modulation, various in vitro assays were employed on isolated mouse RGCs. […] Similarly, xEFN_RBD1, and 3 inhibited the phosphorylation of Rac1 by pre-clustered ephirnA5 ligand stimulation. […] TUBB3 is a marker specific for neuronal microtubules and functions as a neuronal-specific marker."}, "[6]": {"target": "T1, EphA2", "assay": "Immunohistochemistry of TUBB3 and pEphA2 receptor in RGCs", "assay_type": "cell-based", "details": "500 nM, 4 days"}, "[7]": {"test_system": "ARHGEF15 (Ephexin-5)", "assay": "Western blot of ARHGEF15 in mRGCs", "assay_type": "cell-based, mouse", "details": "500 nM", "protocol": "as §1"}, "[8]": {"test_system": "isolated mouse RGCs", "assay": "Neurite outgrowth, long-term (6 days), Incucyte Zoom live cell imaging", "assay_type": "cell-based", "protocol": "as §2, with “Briefly, retinas from postnatal day 8-10 (p8-10) mouse pups were dissected and digested using a papain solution (16.5 U/mL) for 30 minutes at 37° C.” left out\nas §3"}, "[9]": {"details": "supplemented RGC cultures, 48 h"}}, "note": "“Also recorded” adds a separate entry of the source."}
{"sequence": "FTIKFQEFSPNLWGL [xEFN_RBD3]", "values": [{"measurement": "number of collapsed growth cones", "setting": "[1]", "value": "significant decrease"}, {"measurement": "phosphorylation of Ephexin-1", "setting": "[2]", "value": "decrease"}, {"measurement": "phosphorylation of Rac1 by pre-clustered ephrinA5 ligand stimulation", "setting": "[3]", "value": "inhibited"}, {"measurement": "average axonal length", "setting": "[4]; 500 nM, 48 h of culture, compared to vehicle (PBS) treated controls", "value": "302.16+/−40.24%"}, {"measurement": "axonal extension", "setting": "[4]; isolated RGCs", "value": "significantly increases"}, {"measurement": "dendritic arbor complexity", "setting": "[4]; isolated RGCs", "value": "significantly increases"}, {"measurement": "neurite sprouting", "setting": "[4]; isolated RGCs", "value": "significantly increases"}, {"measurement": "average neurites/RGC soma", "setting": "[4]; [9]", "value": "3.43+/−0.16 neurites/RGC"}, {"measurement": "median total neurite length", "setting": "[4]; [9]", "value": "1034.68 (range: 486.26-2759.84) μm/cell"}, {"measurement": "expression of EphA2 (western blot)", "setting": "[5]", "value": "reduced expression; also recorded: effectively decreased expression"}, {"measurement": "dendritic density (immunohistochemistry)", "setting": "[6]", "value": "increase dendritic density"}, {"measurement": "phosphorylation of the EphA2 receptor (immunohistochemistry)", "setting": "[6]", "value": "reduced phosphorylation"}, {"measurement": "ARHGEF15 (Ephexin-5) level", "setting": "[7]", "value": "decrease"}, {"measurement": "neurite outgrowth compared to 1 μM xEFN_F1 peptide", "setting": "[8]; 1 μM, 6-day period", "value": "significantly increased"}, {"measurement": "neurite length over control cultures", "setting": "[8]; 1 μM, after 32 hours of culture", "value": "statistically-significant increase"}, {"measurement": "increase in overall neurite length over day 0 measurement", "setting": "[8]; 1 μM, end of 6-day period", "value": "424.68+/−4.47%"}, {"measurement": "neurite outgrowth compared to EphB2- or EphB4-restricted targeting peptides SNEW and TYFD", "setting": "[8]; equal concentrations", "value": "statistically significant increase"}]}
